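Growth conditions: 96-well plates. Treatment: test compound, 48 hours, 5 concentrations. Analysis: linear interpolation between bracketing concentrations; unreached endpoints set to highest concentration. GI50 is the concentration that inhibits growth by half.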 Active and inactive are the calls of the source. Rule as the data show it: active = GI50 up to about 1.1 µM and inactive = higher.

Some test systems named below: RXF 631; SNB-78; XF498; DLD-1; LXFL 529; T47D; PC-3; MDA-MB-231; Hs-578T.
Holding throughout (test): NCI-60 cell line screen, 48 h

Consider `c1ccc(N/N=C2\NN=C(c3ccccc3)CS2)cc1`, for which the GI50 in the test on RXF 631 was 5.52 µM (inactive); in the test with SNB-78, 5.46 µM (inactive).

For `CC1(O)C=CC(=O)C=C1`, the GI50 in the test on XF498 is 29.1 µM (inactive); with SNB-78, 34.8 µM (inactive); in the test on DLD-1 it was 12.4 µM (inactive); with LXFL 529, 13.3 µM (inactive).

Take `c1ccc2c(c1)nc1n2CSC1`: the GI50 in the test on XF498, with RXF 631, with SNB-78, in the test on DLD-1 and in the test on LXFL 529 was > 100 µM (inactive) throughout.

In the case of `O=C1NC2CCCCCC2C12CCCCC2` (centres undefined), the GI50 in the test with XF498, with RXF 631, with SNB-78, in the test on DLD-1 and with LXFL 529 was > 100 µM (inactive) throughout.

On to `COc1cc(/C=C/C(=O)O)ccc1C(=O)OCc1ccccc1`, for which the GI50 in the test on XF498, in the test on SNB-78 and in the test with DLD-1 was > 100 µM (inactive) throughout.

With `CC1=NN(C(=O)c2ccccc2O)C(=O)/C1=C/c1ccc(O)cc1`, the GI50 in the test on SNB-78 is > 100 µM (inactive); in the test on T47D, 4.03 µM (inactive); in the test on DLD-1, 0.151 µM (active); with LXFL 529, 0.141 µM (active); in the test with PC-3 it was 0.368 µM (active); in the test on MDA-MB-231, 58.9 µM (inactive).

As for `CC(C)CC(N/C=C1/N=C(c2ccccc2)OC1=O)C(=O)O` (centres undefined), the GI50 in the test with RXF 631, with SNB-78 and with DLD-1 was > 100 µM (inactive) in each case.

As for `COC(=O)C1=C(O)c2cc3c(cc2[C@H](c2cc(OC)c(OC)c(OC)c2)C1C(=O)OC)OCO3` (some centres undefined), the GI50 in the test on XF498 is 25.1 µM (inactive); in the test on RXF 631 it was > 100 µM (inactive); in the test with SNB-78 it was 53.2 µM (inactive); in the test with DLD-1, 67 µM (inactive); in the test with LXFL 529 it was 56.5 µM (inactive).

Take `N#C/C(=C/c1ccco1)C(=O)c1ccccc1`: the GI50 in the test on XF498, with RXF 631, in the test on SNB-78, with DLD-1 and in the test with LXFL 529 was > 100 µM (inactive) throughout.

Regarding `COC1O[C@H]2CCN(C(=O)OCc3ccccc3)[C@H]2[C@H]1OCc1ccccc1` (some centres undefined), the GI50 in the test on XF498 is 35.2 µM (inactive); with SNB-78 it was 54.8 µM (inactive); in the test on DLD-1, 48.3 µM (inactive); in the test with LXFL 529, 40.2 µM (inactive).

Consider `O=C(CC1(O)C(=O)Nc2c(Cl)cc(Cl)cc21)c1ccco1` (centres undefined), for which the GI50 with XF498 was 25.1 µM (inactive); with SNB-78 it was 26.9 µM (inactive); in the test on DLD-1 it was 49.3 µM (inactive); in the test on LXFL 529, 37.8 µM (inactive).

For the compound `COc1cc(C2C(C(=O)Nc3ccccc3C)=C(C)NC(C)=C2C(=O)Nc2ccccc2C)ccc1O`, the GI50 was 87.5 µM (inactive) in the test with XF498; > 100 µM (inactive) in the test on RXF 631; > 100 µM (inactive) with SNB-78; > 100 µM (inactive) in the test on DLD-1; > 100 µM (inactive) in the test on LXFL 529.

For the compound `NC(CCCCNCc1ccccc1)C(=O)O` (centres undefined), the GI50 in the test with RXF 631, in the test with SNB-78, with DLD-1 and in the test on LXFL 529 was > 100 µM (inactive) in each case.

As to `COc1cc2c(cc1OC)-c1c3c(cc4c1[C@@H](C2)N(C)CC4)OCO3`, the GI50 in the test with SNB-78 is 11.6 µM (inactive); in the test on DLD-1, 6 µM (inactive).

For `CN(C)CCNC(=O)c1cccc2cc3cc(O)ccc3nc12`, the GI50 was 0.916 µM (active) in the test with XF498, 2.47 µM (inactive) with SNB-78 and 1.42 µM (inactive) in the test with DLD-1.

As to `CN(C)CCNC(=O)c1cccc2c1nc(-c1cccnc1)c1ccccc12`, the GI50 was 1.96 µM (inactive) in the test with RXF 631, 8.18 µM (inactive) in the test on SNB-78 and 4.1 µM (inactive) in the test with DLD-1.

For the compound `Cn1c2ccccc2c2ccc3c(c21)C(=O)C(c1ccccc1)=CC3=O`, the GI50 with SNB-78 was > 100 µM (inactive); in the test on DLD-1, 17.9 µM (inactive); in the test with LXFL 529, 16.1 µM (inactive).

In the case of `S=c1c2nc[nH]c2ncn1CCSC1=NC=NC2=NC=NC21` (centres undefined), the GI50 with XF498 was > 100 µM (inactive); in the test with Hs-578T, > 100 µM (inactive); in the test on SNB-78, 73.6 µM (inactive); in the test with T47D it was > 94.2 µM (inactive); with DLD-1, > 100 µM (inactive); in the test with PC-3 it was > 100 µM (inactive). Further, the GI50 in the test with MDA-MB-231 was > 100 µM (inactive).

Regarding `CS(=O)(=O)N/N=C/CN1C(=O)c2ccccc2C1=O`, the GI50 with XF498, in the test with SNB-78, in the test with DLD-1 and in the test on LXFL 529 was > 100 µM (inactive) throughout.

In the case of `CCOC(=O)C1CCn2c(nc3c(=O)n(C)c(=O)n(C)c32)S1` (centres undefined), the GI50 with RXF 631, in the test with SNB-78, with DLD-1 and in the test on LXFL 529 was > 100 µM (inactive) throughout.

Take `CC1C(/C=C/c2ccoc2)ON2CCCC12` (centres undefined): the GI50 in the test with SNB-78, in the test with DLD-1 and in the test on LXFL 529 was > 100 µM (inactive) in each case.

With `COc1ccc(/C=C(\C2=NC(=O)CS2)c2nc3ccccc3[nH]2)cc1`, the GI50 in the test with XF498 was 14.5 µM (inactive); in the test on SNB-78 it was 21.5 µM (inactive); in the test on DLD-1, > 100 µM (inactive); in the test on LXFL 529, 60.7 µM (inactive).

Take `COC(=O)C#CCC1CCCC1C1SCCS1` (centres undefined): the GI50 in the test on XF498 was 41 µM (inactive); in the test with RXF 631, > 100 µM (inactive); in the test on SNB-78, 23.6 µM (inactive); in the test with DLD-1, 73.5 µM (inactive); with LXFL 529, 70.1 µM (inactive).

For `CCCCCCCCCCCC(=O)C1=C(O)CCC(O)C1=O` (centres undefined), the GI50 with XF498 was 10.7 µM (inactive); with SNB-78 it was 21.9 µM (inactive); in the test on DLD-1 it was 18.2 µM (inactive); in the test on LXFL 529, 16.6 µM (inactive).

In the case of `CN1c2ccccc2N(C(=O)c2ccc([N+](=O)[O-])cc2)C(CC(=O)O)c2cccn21` (centres undefined), the GI50 in the test with XF498, in the test with SNB-78, with DLD-1 and with LXFL 529 was > 100 µM (inactive) throughout.

As to `COC(=O)N1C=Cc2c(c(C)c3c([nH]c4ccccc43)c2C)C1C` (centres undefined), the GI50 in the test with XF498 was 17.7 µM (inactive); with RXF 631 it was 16.4 µM (inactive); in the test with DLD-1, 14.8 µM (inactive); in the test with LXFL 529 it was 22.2 µM (inactive).

As to `C/C(=N/NC(=O)c1ccccc1S(N)(=O)=O)C(CN1CCCCC1)C(C1=C(O)C2C=CC=CC2OC1=O)c1ccccc1` (centres undefined), the GI50 with XF498 was > 100 µM (inactive); with RXF 631 it was > 100 µM (inactive); with SNB-78 it was > 100 µM (inactive); in the test on DLD-1, > 100 µM (inactive); in the test on LXFL 529, 96.6 µM (inactive).

For the compound `Nc1cc(O)c2cc(/N=N/c3ccc(/N=N/c4ccc(/N=N/c5ccc6cc(S(=O)(=O)O)cc(S(=O)(=O)O)c6c5)c5ccccc45)c4cc(S(=O)(=O)O)ccc34)c(S(=O)(=O)O)cc2c1`, the GI50 in the test with XF498, with SNB-78 and with DLD-1 was > 100 µM (inactive) throughout.

In the case of `CC(=O)C1C(=O)C(=O)N(c2ccc(Cl)cc2C)C1=O` (centres undefined), the GI50 in the test with RXF 631, in the test with SNB-78, in the test with DLD-1 and in the test on LXFL 529 was > 100 µM (inactive) throughout.

For `COC(C(O)c1ccc2c(c1)OCO2)P(=O)(c1ccccc1)c1ccccc1` (centres undefined), the GI50 is > 100 µM (inactive) in the test on XF498, > 100 µM (inactive) with SNB-78 and 88.7 µM (inactive) in the test with DLD-1.

Take `COc1ccc(/C(Cl)=C(\C=O)c2ccc(OC)c(OC)c2)cc1`: the GI50 was 22.2 µM (inactive) in the test on XF498, 54.3 µM (inactive) in the test on RXF 631, 29 µM (inactive) with SNB-78 and 30.4 µM (inactive) in the test with LXFL 529.

(Values after ChEMBL document CHEMBL1201862, “PubChem BioAssay data set” (2004).)
